From US4022907A, “Pharmaceutical compositions containing 1,3-dithiacycloalkylidene malonates” (Nihon Nohyaku Co. Ltd., priority 1975, dated 1977)

How the values were obtained:
[1] = tested on: CCl4-induced hepatotoxicity; experiment: Protection against CCl4-induced hepatotoxicity (mice); type: in vivo, mice (four-week-old male, dd strain); conditions: 250 mg/kg oral, average of 5 to 6 mice; for Liver damage index: CCl4 0.05 ml/kg oral after 6 h, 24 h after CCl4, scale 0 Normal, 2 Slightly recognized, 4 Clearly observable damage, 6 Heavy damage, CCl4 alone 5.2, control 0; for p-GPT: plasma, 24 h after CCl4 0.05 ml/kg oral, values over 1,000 regarded as 1,000, CCl4 alone >1,000, control 35
Source text: Carbon tetrachloride (CCl4) administration induces centrilobular necrosis of the liver associated with loss of diphosphopyridine nucleotide, hepatic glycogen, coenzyme A and increase in neutral fat. Release of several enzymes from the hepatocytes, and increase of enzyme activities in the plasma are recognized as the result of the damage of the liver. A suitable means for evaluating the degree of damage induced by CCl4 or the degree of protection afforded by drugs is to study the plasma glutamic-pyruvic transaminase(p-GPT) activity.
Methods: The test compounds were dissolved or suspended in olive oil and administered orally at the dose of 250 mg/kg to the mice (Four-week-old male mice-dd strain). After 6 hours, CCl4 was administered orally (0.05 ml/kg as olive oil solution). Animals were killed 24 hours after CCl4 administration, and the liver was grossly observed. The plasma was obtained by centrifugation. Activities of p-GPT were determined by the method of Reitman and Frankels and expressed in Karmen units. Score for liver damage index was as follows:
Each figure indicates average of 5 to 6 mice. Values of p-GPT over 1,000 Karmen unit regarded as 1,000 for calculation of average for convenience.

[2] = tested on: thioacetamide-induced hepatotoxicity; experiment: Therapeutic effect against thioacetamide-induced hepatotoxicity, BSP test (rats); type: in vivo, rats (Sprague Dawley strain)
Procedure: In the tests of this Example, TAA was repeatedly administered to animals to prepare test animals suffering from somewhat chronic liver damages, and then the present compounds were administered thereto to know whether or not the compounds were effective against chronic hepatitis.
The degree of the liver damage and the therapeutic effects of the compounds were evaluated according to BSP test. The BSP test is a method in which BSP (sulfobromophthalein sodium), a dye known to be quickly metabolized in and excreted from the liver, is intravenously injected into animals and, after a definite period of time, the blood is taken out to measure the amount of BSP remaining in the plasma. In case the animals are suffering from the liver damage, the dye will remain, according to the degree of the damage, at the stage where a major portion of BSP is metabolized and excreted in the case of normal animals. Five groups of rats (Sprague Dawley strain) were treated as follows:
Group A: The rats were orally administered with 100 mg/kg of thioacetamide,at 3 days intervals for 36 days (12 times of the administration), then were submitted for 10 days to a normal diet.
Group B: The rats were orally administered with 100 mg/kg of thioacetamide at 3 days intervals for 36 days (12 times of the administration), then were submitted for 10 days to the normal diet + 0.2% of compound 4.
Group C: The rats were orally administered with 100 mg/kg of thioacetamide at 3 days intervals for 36 days (12 times of the administration) then were submitted for 10 days to the normal diet + 0.2% of compound 2.
Group D: The rats were orally administered with 100 mg/kg of thioacetamide at 3 days intervals for 36 days((12 times of the administration) then were submitted for 10 days to the normal diet + 0.2% of anethol trithion.
Group E: The rats were submitted to the normal diet as the control.
Five rate were sacrificed from each group at appropriate intervals for BSP (sulfobromophthalein) test, the results of which were shown as amounts (mg) of BSP remaining in 1 dl of plasma.

[3] = Acute oral toxicity (LD50) to male mice; conditions: mouse, in vivo
Procedure: For example the LD50 values of the compounds 4, 11 and 17 in Table 1 are more than 5,000 mg/kg. Further, these compounds have no detrimental effects on test animals administered therewith, so far as the doses thereof are within an ordinary administration range.

[4] = tested on: alcohol metabolic function of liver; experiment: Effect on concentration of ethylalcohol in the blood (mice); type: in vivo; conditions: 250 mg/kg oral pre-treatment, ethylalcohol 1,000 mg/kg oral after 6 h
Procedure: The test compounds are dissolved or suspended in olive oil and administered orally at the dose of 250 mg/kg to the mice. After 6 hours, 1,000 mg/kg of ethylalcohol was given orally. Blood was taken in a capillary from caudal vein at the time indicated in the results. The plasma was obtained by centrifugation. The concentration of ethylalcohol in the plasma was measured by FID type gas liquid chromatography. Five mice were used for each group.

[5] = tested on: glucose metabolic function of liver; experiment: Effect on glucose metabolism, blood sugar (mice); type: in vivo; conditions: 250 mg/kg oral pre-treatment, glucose 4.0 g/kg oral after 6 h
Procedure: Methods: The test compounds dissolved in olive oil and administered orally at the dose of 250 mg/kg to the mice. After 6 hours, 4.0 g/kg of glucose was orally administered. The same amount of glucose was given to the control animals. 0.02 ml of blood was taken from caudal vein of the mice at 30, 60, 90 and 120 min. after glucose administration. Blood sugar was measured by the procedure of SomogyiNelson. Number of animals used was 5 to 6 mice for each treatment.

[6] = 2 days of normal diet + 0.2% compound after 12 TAA administrations, TAA only 12.7±3.7, normal 0.4±0.1
[7] = 5 days of normal diet + 0.2% compound after 12 TAA administrations, TAA only 8.7±1.9
[8] = 10 days of normal diet + 0.2% compound after 12 TAA administrations, TAA only 1.4±0.4, normal 0.6±0.1

CCCCCOC(=O)C(C(=O)OCCCCC)=C1SCS1 [Compound 6]
Liver damage index [1]: 1.2
p-GPT [1]: 167 Karmen units

CCCOC(=O)C(C(=O)OCCC)=C1SCS1 [Compound 3, Di-n-propyl 1,3-dithietan-2-ylidene malonate]
Liver damage index [1]: 0.2
p-GPT [1]: 22 Karmen units

CCCCOC(=O)C(C(=O)OCCCC)=C1SCCCS1 [Compound 12]
Liver damage index [1]: 1.8
p-GPT [1]: 284 Karmen units

CCCCCOC(=O)C(C(=O)OCCCCC)=C1SCCCCS1 [Compound 19]
Liver damage index [1]: 0.7
p-GPT [1]: 157 Karmen units

COC(=O)C(C(=O)OC)=C1SCS1 [Compound 1]
Liver damage index [1]: 1.5
p-GPT [1]: 341 Karmen units

COc1ccc(-c2cc(=S)ss2)cc1 [Anetol trithion, anethol trithion, reference compound]
Liver damage index [1]: 1.6
p-GPT [1]: 38 Karmen units
BSP remaining in plasma [2, 6]: 9.7 ± 4.1 mg/dL
BSP remaining in plasma [2, 7]: 7.3 ± 3.4 mg/dL
BSP remaining in plasma [2, 8]: 0.9 ± 0.1 mg/dL

COC(=O)C(C(=O)OC)=C1SCCCS1 [Compound 8]
Liver damage index [1]: 2.8
p-GPT [1]: 437 Karmen units

CCOC(=O)C(C(=O)OC(C)(C)C)=C1SCCCS1 [Compound 13]
Liver damage index [1]: 1.4
p-GPT [1]: 125 Karmen units

CC(C)OC(=O)C(C(=O)OC(C)C)=C1SCCCCS1 [Compound 17, diisopropyl 1,3-dithiepan-2-ylidene malonate]
LD50 [3]: > 5000 mg/kg
Liver damage index [1]: 3.6
p-GPT [1]: 688 Karmen units

CCOC(=O)C(C(=O)OC(C)CC)=C1SCCCCS1 (stereo not shown) [Compound 20]
Liver damage index [1]: 1.0
p-GPT [1]: 188 Karmen units
Concentration of Ethylalcohol in Plasma ([4]; 0 min, control 27 ± 17): 15 ± 2 ppm.
Concentration of Ethylalcohol in Plasma ([4]; 5 min, control 875 ± 203): 710 ± 134 ppm.
Concentration of Ethylalcohol in Plasma ([4]; 15 min, control 810 ± 191): 652 ± 143 ppm.
Concentration of Ethylalcohol in Plasma ([4]; 30 min, control 690 ± 214): 404 ± 93 ppm.
Concentration of Ethylalcohol in Plasma ([4]; 60 min, control 167 ± 76): 18 ± 6 ppm.

CCCOC(=O)C(C(=O)OCCC)=C1SCCCCS1 [Compound 16]
Liver damage index [1]: 3.0
p-GPT [1]: 710 Karmen units

CCOC(=O)C(C(=O)OCC)=C1SCS1 [Compound 2]
Liver damage index [1]: 0.3
p-GPT [1]: 29 Karmen units
BSP remaining in plasma [2, 6]: 7.5 ± 1.2 mg/dL
BSP remaining in plasma [2, 7]: 3.8 ± 0.4 mg/dL
BSP remaining in plasma [2, 8]: 0.7 ± 0.1 mg/dL
Concentration of Ethylalcohol in Plasma ([4]; 0 min, control 27 ± 17): 11 ± 4 ppm.
Concentration of Ethylalcohol in Plasma ([4]; 5 min, control 875 ± 203): 714 ± 167 ppm.
Concentration of Ethylalcohol in Plasma ([4]; 15 min, control 810 ± 191): 655 ± 102 ppm.
Concentration of Ethylalcohol in Plasma ([4]; 30 min, control 690 ± 214): 426 ± 101 ppm.
Concentration of Ethylalcohol in Plasma ([4]; 60 min, control 167 ± 76): 15 ± 10 ppm.
Blood Sugar ([5]; 0 min, control 145 ± 11.8): 142 ± 22.8 mg/dL
Blood Sugar ([5]; 30 min, control 311 ± 21.9): 258 ± 17.5 mg/dL
Blood Sugar ([5]; 60 min, control 290 ± 14.6): 229 ± 18.7 mg/dL
Blood Sugar ([5]; 90 min, control 263 ± 13.1): 183 ± 18.1 mg/dL
Blood Sugar ([5]; 120 min, control 251 ± 13.5): 150 ± 20.4 mg/dL

CCOC(=O)C(C(=O)OCC)=C1SCCCS1 [Compound 9]
Liver damage index [1]: 2.2
p-GPT [1]: 366 Karmen units

CC(C)OC(=O)C(C(=O)OC(C)C)=C1SCS1 [Compound 4, Diisopropyl 1,3-dithietan-2-ylidene malonate]
LD50 [3]: > 5000 mg/kg
Liver damage index [1]: 0.0
p-GPT [1]: 20 Karmen units
BSP remaining in plasma [2, 6]: 7.1 ± 0.8 mg/dL
BSP remaining in plasma [2, 7]: 3.2 ± 0.6 mg/dL
BSP remaining in plasma [2, 8]: 0.6 ± 0.2 mg/dL
Concentration of Ethylalcohol in Plasma ([4]; 0 min, control 27 ± 17): 10 ± 3 ppm.
Concentration of Ethylalcohol in Plasma ([4]; 5 min, control 875 ± 203): 695 ± 122 ppm.
Concentration of Ethylalcohol in Plasma ([4]; 15 min, control 810 ± 191): 637 ± 113 ppm.
Concentration of Ethylalcohol in Plasma ([4]; 30 min, control 690 ± 214): 410 ± 77 ppm.
Concentration of Ethylalcohol in Plasma ([4]; 60 min, control 167 ± 76): 15 ± 8 ppm.
Blood Sugar ([5]; 0 min, control 145 ± 11.8): 168 ± 20.4 mg/dL
Blood Sugar ([5]; 30 min, control 311 ± 21.9): 280 ± 10.8 mg/dL
Blood Sugar ([5]; 60 min, control 290 ± 14.6): 215 ± 20.1 mg/dL
Blood Sugar ([5]; 90 min, control 263 ± 13.1): 164 ± 16.5 mg/dL
Blood Sugar ([5]; 120 min, control 251 ± 13.5): 165 ± 15.3 mg/dL

CCOC(=O)C(C(=O)OCC)=C1SCCCCS1 [Compound 15]
Liver damage index [1]: 3.2
p-GPT [1]: 533 Karmen units

COC(=O)C(C(=O)OC)=C1SCCCCS1 [Compound 14]
Liver damage index [1]: 3.5
p-GPT [1]: 762 Karmen units

NC(=O)CCCCC1CCSS1 (stereo not shown) [Thioctic acid amide, reference compound]
Liver damage index [1]: 4.8
p-GPT [1]: 763 Karmen units

CCOC(=O)C(C(=O)OC(C)C)=C1SCS1 [Compound 7]
Liver damage index [1]: 0.6
p-GPT [1]: 54 Karmen units

CC(C)OC(=O)C(C(=O)OC(C)C)=C1SCCCS1 [Compound 11, Diisopropyl 1,3-dithian-2-ylidene malonate]
LD50 [3]: > 5000 mg/kg
Liver damage index [1]: 2.3
p-GPT [1]: 215 Karmen units

CCCCOC(=O)C(C(=O)OCCCC)=C1SCS1 [Compound 5]
Liver damage index [1]: 1.2
p-GPT [1]: 158 Karmen units

CCCCOC(=O)C(C(=O)OCCCC)=C1SCCCCS1 [Compound 18]
Liver damage index [1]: 0.5
p-GPT [1]: 41 Karmen units

CCCOC(=O)C(C(=O)OCCC)=C1SCCCS1 [Compound 10, Di-n-propyl 1,3-dithian-2-ylidene malonate]
Liver damage index [1]: 2.2
p-GPT [1]: 50 Karmen units
Concentration of Ethylalcohol in Plasma ([4]; 0 min, control 27 ± 17): 13 ± 4 ppm.
Concentration of Ethylalcohol in Plasma ([4]; 5 min, control 875 ± 203): 753 ± 78 ppm.
Concentration of Ethylalcohol in Plasma ([4]; 15 min, control 810 ± 191): 698 ± 95 ppm.
Concentration of Ethylalcohol in Plasma ([4]; 30 min, control 690 ± 214): 451 ± 114 ppm.
Concentration of Ethylalcohol in Plasma ([4]; 60 min, control 167 ± 76): 12 ± 11 ppm.
Blood Sugar ([5]; 0 min, control 145 ± 11.8): 148 ± 14.7 mg/dL
Blood Sugar ([5]; 30 min, control 311 ± 21.9): 267 ± 21.2 mg/dL
Blood Sugar ([5]; 60 min, control 290 ± 14.6): 222 ± 18.3 mg/dL
Blood Sugar ([5]; 90 min, control 263 ± 13.1): 162 ± 14.4 mg/dL
Blood Sugar ([5]; 120 min, control 251 ± 13.5): 148 ± 18.8 mg/dL
